Laboratory results from paper PMC7915858, “Complementary Effects of Carbamylated and Citrullinated LL37 in Autoimmunity and Inflammation in Systemic Lupus Erythematosus” (International Journal of Molecular Sciences, 2021).

Columns and labels:
[1] = system: native LL37-P1-specific T-cells (HLA-DRB1*1501 tetramer); assay: Peptide-MHC-tetramer staining of T-cells after PBMC stimulation; assay type: cell-based, human
Procedure: Peptide-MHC-tetramers were from ImmunAware (Denmark). Staining was performed for 40 min with 1microL of tetramer suspension at 37 °C, followed by staining for CD4 (4 °C, 20 min), without washing. After incubation with anti-CD4 antibody, cells were washed, resuspended in PBS and kept at 4 °C. Before flow cytometry-acquisition, cells were labeled with PercP-conjugated 7-AAD to exclude dead cells. The peptide-MHC-tetramers used in this study are: the HLA-DR15-P1: tetramer of HLA-DRB1*1501 LLGDFFRKSKEKIGK (corresponding to the first aa at the NH2-term of the mature native LL37), (PE-conjugated) and the control peptide-MHC-tetramer called DR15-ctr: tetramer of HLA-DRB1*1501 […]1-169-185 (PE-conjugated). The other couple of peptide-MHC-tetramers used were HLA-DRB5*0101 loaded with the same LL37 epitope as above and the control tetramer HLA-DRB5*0101 loaded with the control epitope PVSKMRMATPLLMQA (CLIP-derived).

human DNA = assay: Binding of peptides to DNA by EMSA; conditions: 2% agarose gel
Procedure: Human DNA was extracted from PBMCs, as reported and was fragmented by sonication. Five milligrams of DNA in a volume of 300 μL were fragmented using the Sonics Vibra Cell sonicator (Newtown, CT, USA), with the following settings: 2, 4 and 10 sonication cycles (30 s on, 30 s off, in ice) to obtain DNA fragment sizes between 100 and 1000 bp. The resulting size distribution was controlled by 2% agarose gel electrophoresis.
EMSA was performed by mixing various μM concentrations of LL37 or carb-LL37 or cit-LL37 (or AMP S100A8, as negative control), with appropriate concentration of DNA, which respected the appropriate protein–DNA ratio used in pDC-stimulation assays. DNA alone and the mixtures were run on a 2% agarose gel to evidence the delay in migration of the DNA, due to the binding to the tested proteins. DNA on the gel was visualized by with SYBR Safe DNA gel staining (ThermoFisher Scientific).

HLA-DR15 (DRB1*1501) = HLA-DR15 (DRB1*1501) (Homo sapiens, UniProt P01903+P01911); assay: Peptide-MHC class II binding (HLA-DR folding assay, LOCI/AlphaScreen); conditions: peptide titrated, 48 h at 18 °C, LOCI, two experiments, KD values only in picture (Table S2)
Procedure: (§1) Peptide-MHC-binding assays was performed by ImmunAware (Horsholm, Denmark). Binding was measured using a Luminescent Oxygen Channeling Immunoassay (LOCI), marketed by Perkin Elmer (Hopkinton, MA, USA) as AlphaScreen. This is a nonradioactive bead-based homogenous proximity assay, where the donor beads containing a photosensitizer compound, upon excitation with light at a 680 nm wavelength, converts ambient oxygen to energy-rich, short-lived singlet oxygen; this latter is transferred to acceptor beads, in close proximity only. The acceptor beads can respond to a single oxygen with a luminescence/fluorescence cascade, leading to an amplified signal in the 520–620 nm range. There is a tag binding to the donor beads: a biotin group engineered into the HLA β chain.
(§2) The acceptor beads are linked instead to a conformation-dependent HLA class II specific antibody (L243). Thus, only when a peptide binds well the HLA class II molecule, a corrected folded HLA class II molecule is formed and can be recognized by the L243 antibody. Biotinylated recombinant HLA class II molecules were diluted from an 8 M urea buffer into a folding buffer (PBS, 20% glycerol, Protease inhibitor mix). Different peptide concentrations, between 0.13 nM and 10,000 nM, were added into the assay. The tested peptides were titrated in 5-to-8 five-fold concentration, […]. The reaction mixtures were incubated for 48 h at 18 °C to allow peptide-HLA-complex formation to reach a steady state. After incubation, 15 μL of the folding mixture was transferred to a 384-well Optiplate (Perkin Elmer), followed by addition of 15 μL of a solution containing L243 acceptor beads and streptavidin donor beads (final concentration of beads was 5 μL/mL). The plates were incubated over night at 18 °C and then measured in enVisionTM, Perkin Elmer. Assay signals measured in OD450 were plotted against the offered peptide concentrations and analyzed by non-linear regression using GraphPad Prism. The peptide concentration resulting in half saturation, the half maximal effective concentration (EC50), was estimated by fitting the experimental data to the equation: Y = Bmax*X/(KD + X), where Y is the OD450 measurement of complexes formed and X is the concentration of ligand (peptide) offered. The EC50 approximates the KD as long as the receptor concentration used is less than the KD, thus avoiding ligand depletion.

HLA-DR1 (DRB1*0101) = HLA-DR1 (DRB1*0101) (Homo sapiens, UniProt P01903+P01911, /P40L/Q125E/R42F/V115G/Y59C); assay: as above; conditions: peptide titrated, 48 h at 18 °C, LOCI, two experiments, KD values only in picture (Table S2)
Procedure: as §1, §2

pDCs = conditions: LL37 citrullinated at all five arginines; cited from earlier work
From the text: LL37 is able to activate innate immune cells and B-cells after forming complexes with nucleic acids in a special molecular conformation, suitable for TLR stimulation. PDCs, as well as B-cells, are both activated by LL37-DNA or LL37-RNA complexes.

[2] = 7 days carb-LL37 stimulation, control tetramer, tetramer/CXCR5 plots
[3] = 7 days carb-LL37 stimulation, tetramer loaded with native LL37 epitope P1, tetramer/CXCR5 plots

Substance	Percent printed first in Figure S7b plot (gate not recoverable from text) [1, 2]	Percent printed second in Figure S7b plot (gate not recoverable from text) [1, 2]	Percent printed third in Figure S7b plot (gate not recoverable from text) [1, 2]	Percent printed second in Figure S7a plot (gate not recoverable from text) [1, 3]	Percent printed third in Figure S7a plot (gate not recoverable from text) [1, 3]	CXCR5 expression on LL37-specific (tetramer-positive) T-cells ([1]; SLE PBMC stimulated, Figure 5d)	Expansion of T-cells specific for the native LL37 epitope ([1]; SLE PBMC, tetramer staining, versus control tetramer)	Concentration at which DNA binding ability is lost (human DNA)	DNA binding ability (human DNA; 3-to-5 experiments)	Binding to HLA-DRB1*1501 compared to cit-LL37 (HLA-DR15 (DRB1*1501))	Binding to HLA-DRB1*1501 compared to cit-LL37 (HLA-DR15 (DRB1*1501); listed as Carb-LL37)	Binding to HLA-DRB1*0101 compared to cit-LL37 (HLA-DR1 (DRB1*0101))	Binding to HLA-DRB1*0101 compared to cit-LL37 (HLA-DR1 (DRB1*0101); listed as Carb-LL37)	Ability to transform cell-free DNA into an inducer of IFN-I by human pDCs (pDCs)
L*LGDFFRK*SK*EK*IGKEFK*RIVQRIK*DFLRNLVPRTES [carb-LL37]	0.0%	0.19%	0.01%	2.00%	2.20%	variable but significant expression of the TFH marker CXCR5	expansion of T-cells specific for the native LL37 epitope	3 µM	does not completely abolish the LL37 DNA binding ability	equivalent to the binding efficiency of cit-LL37	binds HLA-DR alleles similarly to cit-LL37	equivalent to the binding efficiency of cit-LL37	binds HLA-DR alleles similarly to cit-LL37	–
LLGDFFR(cit)KSKEKIGKEFKR(cit)IVQR(cit)IKDFLR(cit)NLVPR(cit)TES [cit-LL37, LL37 citrullinated at all five arginine sites]	–	–	–	–	–	–	–	–	–	–	–	–	–	loose ability to transforms the “cell-free” DNA into an inducer of IFN-I by human pDCs
